Test results reported in patent US8398970B2, “Method of preventing early Lawsonia intracellularis infections” (priority 2007, dated 2013).

Test system: Lawsonia intracellularis
Assay: Embedded early vaccination field study: performance of weaned piglets during the rearing period
Format: in vivo
Protocol: The study was carried out in a unit in North Rhine Westphalia with 160 sows and 600 breeding stalls, producing to a weekly cycle with four weeks' suckling. The piglets are sold on for fattening once they reach about 30 kg.
The unit was chosen because clinical ileitis occurred in the rearing quarters of the unit if the animals were not treated with an antibiotic effective against Lawsonia intracellularis for 10 days from the weaning time onwards. More detailed diagnosis found. Lawsonia intracellularis in the faeces of the clinically sick animals and other diarrhea-causing pathogens were ruled out.
Within the course of the study all the piglets were weighed on removal from the sows and individually marked with progressive numbering using an ear tag. A blood sample was taken from each of 15 piglets in each group of weaned animals on the day of removal from the sow and this blood was tested for antibodies to Lawsonia intracellularis. The weaned piglets were put into pens in groups of 10 animals. Four days after weaning every second group of weaned animals was vaccinated with Enterisol® Ileitis (Boehringer Ingelheim) in accordance with the manufacturer's instructions through the drinking water in their trough. The other groups remained unvaccinated. After 3 days without antibiotics following the ileitis vaccination, the piglets of all the weaned groups were subjected to tylosin therapy (10 mg/kg KGW Tylae G 25, Elanco Animal Health) for 18 days starting from the 8th day after weaning. The unvaccinated weaned piglets were also treated with tylosin in the same dosage for 18 days starting from the 8th day after weaning.
On the day of release from their pens, all the piglets were again weighed individually. In addition, blood samples were taken from 10 piglets in each market batch, and the samples were examined for antibodies to Lawsonia intracellularis using ELISA. All the study groups were subjected to identical care and feed conditions. The study encompasses a total of 891 piglets. The absolute weight gain and daily increase in growth were calculated from the weights on removal from the sows and release from the pens. The rearing period was ascertained using the weaning date and date of sale.

## CC[C@H]1OC(=O)C[C@@H](O)[C@H](C)[C@@H](O[C@@H]2O[C@H](C)[C@@H](O[C@H]3C[C@@](C)(O)[C@@H](O)[C@H](C)O3)[C@H](N(C)C)[C@H]2O)[C@@H](CC=O)C[C@@H](C)C(=O)/C=C/C(C)=C/[C@@H]1CO[C@@H]1O[C@H](C)[C@@H](O)[C@@H](OC)[C@H]1OC [tylosin]
average, weaning date to date of sale
  rearing period: 52.9 days
Difference in maximum rearing period
  breeding pens blocked longer than pens containing vaccinated groups: 17 days
During rearing period
  average gain per day: 404 g per day
Maximum rearing period
  Max. growth period: 96 days
Mean daily weight gain during rearing period
  daily increase: 404 g
Mean weight at end of rearing period
  sale weight: 29.26 kg
Shortest time after which a piglet was sent on for fattening
  Min. growth period: 31 days
